Measured values as given in PMC11926786, “Effect of Lipidation on the Structure, Oligomerization, and Aggregation of Glucagon-like Peptide 1” (Bioconjugate Chemistry, 2025).
“Also recorded” adds a separate entry of the source. Read-outs that look alike come from different tables or passages of the source. *1 amine or outer side, *2 acyl side, *3 side chain or, on linkers, in order; H or OH if unused. Where a SMILES comes first, the peptide text is derived from it. Side-chain parts run from the residue outwards. The star is where a group is joined. γGlu = O=C(O)[C@H](CCC(=O)[*:2])N[*:1]; Palmitoyl = CCCCCCCCCCCCCCCC(=O)*

How the values were obtained:
[1] = Aggregation behaviour and aggregate morphology of aged samples (TEM, far-UV CD); format: physicochemical; settings: 25 mM phosphate
[2] = Isoelectric point by isoelectric focusing gel electrophoresis; format: physicochemical; settings: printed in Figure 1D
Protocol: Figure 1D illustrates the solubility of each lipidated analogue and nonlipidated GLP-1-Am at different pH values. […] Isoelectric points (pI) of the analogues were determined using isoelectric focusing gel electrophoresis (Figure S1), and the determined values are given in Figure 1D in the column next to the solubility chart.

[3] = Far-UV CD of freshly dissolved samples, α-helical content from MRE222; format: physicochemical; settings: 85 μM, 25 mM phosphate pH 7.5, room temperature, estimated from MRE222
[4] = pH-dependent peptide solubility; format: physicochemical; settings: from solid: ca. 0.5 mg lyophilized powder + 500 μL 25 mM phosphate, citrate or Tris; pH 2.5 to 8.5 in 0.5 steps; ca. 5 min, room temperature; 0.22 μm filtered; A280; soluble = concentrations above 50 μM, insoluble = not above 1 μM
Protocol: Figure 1D illustrates the solubility of each lipidated analogue and nonlipidated GLP-1-Am at different pH values. […] Isoelectric points (pI) of the analogues were determined using isoelectric focusing gel electrophoresis (Figure S1), and the determined values are given in Figure 1D in the column next to the solubility chart. […] It is interesting to note that these both form well-defined oligomeric states (see later sections), in which it is likely that the local chemical environment of the individual ionizable groups has changed. […] Although there have been attempts to rationalize the solubility and even develop solubility predictors for peptide/protein analogs containing non-natural amino acids and amino acid derivatives, the prediction of the solubility of lipidated analogues remains challenging due to its complexity.[43],[44]
The peptide solubility was tested in the individual buffers differing by 0.5 on the pH scale (i.e., pH 2.5, 3.0, 3.5, 4.0, ...). […] Subsequently, the concentration of the peptide was determined spectrophotometrically (Cary 60 UV–vis, Agilent Technologies) using the absorption at 280 nm and a theoretical extinction coefficient of 6990 M^–1 cm^–1 at 280 nm.

[5] = Sedimentation velocity analytical ultracentrifugation of oligomeric species; format: physicochemical; settings: freshly prepared samples, pH 7.5; determined by both AUC and SEC
Protocol: Sedimentation velocity experiments were performed using a Beckman Optima XL-I Analytical Ultracentrifuge equipped with an An-60 Ti rotor. Samples of 85 μM peptide concentration were freshly prepared before the measurement. After a 2 h temperature equilibration of samples in the centrifuge to 20 °C, the experiment was performed with centrifugation at 50,000 rpm. The interference sedimentation curves were collected as 150 scans (approximately 12 h run time) and fitted to a continuous c(s) distribution model implemented in the Sedfit program.[48],[52],[53] The sedimentation coefficient was corrected for the standard state of the water at 20 °C (s20,w). The molecular weight and relative amount of each detected species were calculated using the Sedfit program.

[6] = Size-exclusion chromatography of oligomeric species; format: physicochemical; settings: freshly prepared, 135 μM
Protocol: Analytical SEC was performed on an KTA FPLC system (GE Healthcare), using a Superdex 200 Increase 10/300 column (GE Healthcare). Samples were loaded using a 200 μL loop. Prior to loading, the samples were filtered through a 0.22 μm filter (Millex, PVDF Membrane) to avoid blocking the column by large aggregates. All samples were eluted at a flow rate of 0.75 mL min^–1 at room temperature, and UV absorbance detection at 280 nm through a 0.5 cm flow cell was used. A set of globular protein standards (GE Healthcare) was used to construct a calibration curve for the column, Figure S9.
Calibration curve for Superdex 200 Increase 10/300 column
Globular protein standards (GE Healthcare) were used for column calibration, (Fig. S9C). The gel phase
distribution parameter, Kav, of each protein standard was calculated as
where Ve is an elution volume of a protein standard, V0 is the void volume of the column (determined
used. The logarithm of the molecular weight of each protein standard was plotted against its Kav. A
linear regression of this plot was used to determine the molecular weight of any eluting species
For Stoke’s radius (RSt), a calibration plot of √−log(Kav) against
RSt and a linear regression was used.
Figure S9: Calibration of a Superdex 200 Increase 10/300 column. Calibrations on the molecular weight (A) and on the Stoke’s […]

[7] = cited from earlier work
[8] = design: method as in 2 sources, one per row (each row's own in cited_ref): ref Venanzi et al., 20 ||| ref 20 = [20]; PMID 32780784; doi:10.1039/D0SM01011A; Venanzi M.; Savioli M.; Cimino R.; Gatto E.; Palleschi A.; Ripani G.; Cicero D.; Placidi E.; Orvieto F.; Bianchi E. A Spectroscopic and Molecular Dynamics Study on the Aggregation Process of; settings: semaglutide without C-terminal amidation, cited from earlier work

Q: For `CCCCCCCCCCCCCCCC(=O)N[C@@H](CCC(=O)NCCCC[C@H](NC(=O)[C@@H](N)Cc1c[nH]cn1)C(=O)N[C@@H](CCC(=O)O)C(=O)NCC(=O)N[C@H](C(=O)N[C@@H](Cc1ccccc1)C(=O)N[C@H](C(=O)N[C@@H](CO)C(=O)N[C@@H](CC(=O)O)C(=O)N[C@H](C(=O)N[C@@H](CO)C(=O)N[C@@H](CO)C(=O)N[C@@H](Cc1ccc(O)cc1)C(=O)N[C@@H](CC(C)C)C(=O)N[C@@H](CCC(=O)O)C(=O)NCC(=O)N[C@@H](CCC(N)=O)C(=O)N[C@@H](C)C(=O)N[C@@H](C)C(=O)N[C@@H](CCCNC(=N)N)C(=O)N[C@@H](CCC(=O)O)C(=O)N[C@@H](Cc1ccccc1)C(=O)N[C@H](C(=O)N[C@@H](C)C(=O)N[C@@H](Cc1c[nH]c2ccccc12)C(=O)N[C@@H](CCCNC(=N)N)C(=O)N[C@H](C(=O)N[C@@H](CCCNC(=N)N)C(=O)NCC(=O)N[C@@H](CCCNC(=N)N)C(=O)NCC(N)=O)C(C)C)[C@@H](C)CC)C(C)C)[C@@H](C)O)[C@@H](C)O)C(=O)O` [GLP-1-Am (2, γ-Glu-palm)] (H-HK([γGlu-Palmitoyl])EGTFTSDVSSYLEGQAAREFIAWRVRGRG-NH2), which “aggregation at pH 3” value [1] is on record?
A: Its value is “rapidly aggregate forming short fibril-like species with high β-sheet content; also recorded: analogue not soluble; (at pH 3, there is rapid formation of β-structure-rich fibrils)”.

Q: Which “isoelectric point (pI)” value [2] does the source give for `CC[C@H](C)[C@H](NC(=O)[C@H](Cc1ccccc1)NC(=O)[C@H](CCC(=O)O)NC(=O)[C@H](CCCCN)NC(=O)[C@H](C)NC(=O)[C@H](C)NC(=O)[C@H](CCC(N)=O)NC(=O)CNC(=O)[C@H](CCC(=O)O)NC(=O)[C@H](CC(C)C)NC(=O)[C@H](Cc1ccc(O)cc1)NC(=O)[C@H](CO)NC(=O)[C@H](CO)NC(=O)[C@@H](NC(=O)[C@H](CC(=O)O)NC(=O)[C@H](CO)NC(=O)[C@@H](NC(=O)[C@H](Cc1ccccc1)NC(=O)[C@@H](NC(=O)CNC(=O)[C@H](CCC(=O)O)NC(=O)[C@H](C)NC(=O)[C@@H](N)Cc1cnc[nH]1)[C@@H](C)O)[C@@H](C)O)C(C)C)C(=O)N[C@@H](C)C(=O)N[C@@H](Cc1c[nH]c2ccccc12)C(=O)N[C@@H](CC(C)C)C(=O)N[C@H](C(=O)N[C@@H](CCCCN)C(=O)NCC(=O)N[C@@H](CCCNC(=N)N)C(=O)NCC(N)=O)C(C)C` [GLP-1-Am] here?
A: Its value is 7.4.

Q: What about the α-helix content [3] of the same molecule?
A: Its α-helix content is 21%.

Q: And the “pH range of solubility” value [4]?
A: Its value is “soluble at all pH values tested; also recorded: soluble over the entire range studied”.

Q: And the oligomerization [5]?
A: The oligomerization was “dimer and hexamer, less stable, detectable only by AUC, α-helical”.

Q: What about the “SEC peak elution volume(s)” value ([6]; 25 mM phosphate pH 7.5, Superdex 200 Increase 10/300, 0.75 mL min–1, room temperature, A280) of the same molecule?
A: The value was 19.2 mL.

Q: And the SEC n-mer ([6]; 25 mM phosphate pH 7.5, Superdex 200 Increase 10/300, calculated from calibration with globular protein standards)?
A: Its SEC n-mer is 1–2.

Q: For GLP-1, which half-life in vivo ([7]; in vivo) is on record?
A: Its half-life in vivo is “circa 2 min”.

Q: For “liraglutide: marketed lipidated GLP-1 analogue, palmitic acid (C16) linked to Lys20 via a γ-glutamic acid spacer”, which half-life in vivo ([7]; pharmacokinetic data) is on record?
A: The half-life in vivo was 9 to 13 h.

Q: Which results are given for “semaglutide: marketed lipidated GLP-1 analogue, stearic diacid (C18) lipidation at Lys20”?
A: half-life in vivo ([7]; in vivo): 170 h; oligomeric state [8]: equilibrium of monomers and dimers; aggregation on incubation ([8]; ref Venanzi et al., 20): aggregation was observed after several weeks of incubation
